Test results from patent publication US7850946B2, “Macrocyclic cyanine and indocyanine bioconjugates provide improved biomedical applications” (Washington University in St. Louis, priority 2003, dated 2010).
pIC50: −log10 of the molar value. Starred links: 1 amine or outer side, 2 acyl side, 3 side chain; linkers in the order of their positions; H or OH if unused. Positions of bridges follow the written chain, without caps; N, C: chain ends. Non-standard residues stand in square brackets, D forms with d. Residues, ends and D or L forms follow the SMILES beside them. X1 = CC1(C)C(/C=C/C=C/C=C/C=C2/N(CCC(=O)[*:2])c3ccc4ccccc4c3C2(C)C)=[N+](CCC(=O)[*:1])c2ccc3ccccc3c21

Tests used:
SSTR2 = molecular target: T1, SSTR2 (Rattus norvegicus, UniProt P30680); experiment: Receptor binding affinity: competition with 111In-DTPA-octreotide in AR42J tumor cell membranes; conditions: 37° C., 2 h, radioligand 111In-DTPA-octreotide, read-out: IC50 relative to 111In-DTPA-octreotide
T1 construct: A preparation of cell membranes was made from AR42J cells by brief sonication; endogenous in cells; host or cells: AR42J rat pancreatic carcinoma cells (membrane preparation)
T1 sequence (P30680 whole entry): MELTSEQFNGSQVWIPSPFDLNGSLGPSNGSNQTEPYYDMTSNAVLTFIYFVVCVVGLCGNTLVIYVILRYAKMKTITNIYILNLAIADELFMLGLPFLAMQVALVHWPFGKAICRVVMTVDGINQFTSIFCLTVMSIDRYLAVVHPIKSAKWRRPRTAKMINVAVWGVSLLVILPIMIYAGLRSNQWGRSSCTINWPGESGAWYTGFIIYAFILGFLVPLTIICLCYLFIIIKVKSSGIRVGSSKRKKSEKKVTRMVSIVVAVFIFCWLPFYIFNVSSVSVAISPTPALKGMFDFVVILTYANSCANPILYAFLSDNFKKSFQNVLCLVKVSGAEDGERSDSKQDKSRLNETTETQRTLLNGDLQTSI
Experimental: The binding affinity of somatostatin analogues was carried out using ^111In-DTPA-octreotide in AR42J tumor cells according to previously reported methods with minor modifications (Lewis, J. S., Lewis, M. R., Srinivasan, A., Schmidt, M. A., Wang, J., and Anderson, C. J. (1999) Comparison of Four ^64Cu-labeled Somatostatin Analogs in vitro and in a Tumor-bearing Rat Model: Evaluation of New Derivatives for PET Imaging and Targeted Radiotherapy. J. Med. Chem. 42, 1.341-1347). The AR42J rat pancreatic carcinoma cell line is known to express SSTR2 both in vitro and in vivo ((Rosewicz, S., Vogt, D., Harth, N., Grund, C., Franke, W. W., Ruppert, S., Schweitzer, E., Riecken, E.-O., and Wiedenman, B. (1992) An Amphicrine Pancreatic Cell Line: AR42J Cells Combine Exocrine and Neuroendocrine Properties. Eur. J. Cell Biol. 59, 80-91; Christophe, J. (1994) Pancreatic Tumoral Cell Line AR42J: An Amphicrine Model. Am. J.
Physiol. (Gastrointest. Liver Physiol.) 266 (29), G963-G971). […] The filters containing membrane-bound radioactivity were removed from the assay plate and counted using a Beckman 8000 automated well-typed counter (Fullerton, Calif.). Specific binding was calculated by subtracting the non-specifically bound radioactivity from that of total binding. The best-fit IC50 values were calculated using PRISM™ (Graphpad, San Diego, Calif.). […]

[1] = system: CA20948 tumor-bearing mice; experiment: Contrast agent-mediated optical imaging / biodistribution in tumor (CA20948) bearing mice; format: in vivo; conditions: 0.5 mL of a 1 μM solution via lateral tail vein
Description: The instrument consists of an excitation source and a charge-coupled device (CCD) camera for signal detection. To image compounds such as compound 18 that absorb and emit radiation in the near infrared region, a nominal 780 nm collimated solid state laser source was used to excite the compounds. The nominal 50 mW of incident power from the laser was reduced to about 20 mW at the output of the fiber optic bundle. A CCD camera (12 bit, 1024×1024 pixel, back illuminated) was equipped with the appropriate interference filter to capture the emitted photons at 830 nm. Biodistribution of the dyes and receptor-specific optical contrast agent in mice were performed by injecting 0.5 mL of a 1 μM solution of the compound via the lateral tail vein of tumor (CA20948) bearing mice. […] In contrast, injection of somatostatin-avid optical probes in CA20948 tumor-bearing mice preferentially accumulates in the tumor.

## C[C@@H](O)[C@@H]1NC(=O)[C@@H]2CSSC[C@H](NC(=O)[C@@H](Cc3ccccc3)NC(=O)CC[N+]3=C(/C=C/C=C/C=C/C=C4/N(CCC(=O)NCCCC[C@@H](C(N)=O)NC1=O)c1ccc5ccccc5c1C4(C)C)C(C)(C)c1c3ccc3ccccc13)C(=O)N[C@@H](Cc1ccc(O)cc1)C(=O)N[C@H](Cc1c[nH]c3ccccc13)C(=O)N[C@@H](CCCCN)C(=O)N[C@@H]([C@@H](C)O)C(=O)N2 [Compound 18] ([dF]CY[dW]KTCTK-NH2; disulfide 2-7; linker N-9 via X1)
SSTR2
  pIC50: 8.09

## CC1(C)C(/C=C/C=C/C=C/C=C2/N(CCC(=O)O)c3ccc4ccccc4c3C2(C)C)=[N+](CCC(=O)O)c2ccc3ccccc3c21 [Compound 2, Bispropylcarboxymethylindocyanine Dye]
[1]
  time to clearance from the blood postinjection: ≤ 1 h
[1]; optical imaging 780 nm excitation / 830 nm emission
  biodistribution: site of accumulation: accumulates in the liver
